Holding throughout (assay type): in vivo, human
In data set [1] the test system is patients with chronic tension-type headache. As to the kind of experiment: Double-blind crossover i.v. L-NMMA vs placebo: headache intensity on VAS and VRS. From the text: Sixteen patients With a diagnosis of chronic tension-type headache according to the criteria of the International Headache Society, (headache Classification Committee 1988) were recruited from the out-patient headache clinic at Glostrup Hospital. There were 12 women and 4 men with a mean age (range) of 38.5 (23-52) years. Five patients with coexisting infrequent migraine (£ one day/month) were accepted. All patients completed a diagnostic headache diary during a 4-week run-in period (Russell et al. 1992). At screening, a full physical and neurological examination, including 12-lead ECG were carried out. Blood samples for routine haematological and biochemical testing, and urine sample for urine analysis were taken. The patients were not allowed to take analgesics 12 hours prior to the treatment. Exclusion criteria were: daily medication (including prophylactic headache therapy but not oral contraceptives); pregnant or breast feeding women; abuse of analgesics (corresponding to>2 gm of aspirin/day) or alcohol, serious somatic or psychiatric diseases including depression (Hamilton Depression Score ^317 (Hamilton 1960)); ischemic heart disease; a supine diastolic blood pressure >90 mmHg or heart rate <50 beats per minute at study entry. All patients gave written informed consent to participate in the study, which was approved by The local ethics committee and conducted in accordance with the Declaration of Helsinki.
(§1) Randomization (Med.Stat) and drug preparation were performed by staff not involved in the study. The medication was given over 15 minutes into an antecubital vein (Braun Perfusor). The following parameters were measured at baseline and […] post administration: headache intensity on a 100-mm Visual Analog Scale (VAS) (0-no headache and 100-worst imaginable headache) and on a Verbal Rating Scale (VRS) from 0-10 (0-no headache; 5-moderate headache; 10-worst imaginable headache). Blood pressure and pulse rate were measured 5 minutes prior to administration of treatment and at 5, 10, 15, 20, 25, 30, 60, 90 and 120 minutes post administration. Twelve-lead ECG was monitored continuously. Any adverse events were recorded. Patient with unrelieved headache at 120 minutes post treatment were allowed to take rescue medication. All patients were asked to record details of the following on a diary card at 4, 8, 12, 16, 20 and 24 hours post administration, headache intensity on VRS, any medication taken and adverse events. Between 4-7 days after each treatment, the patients returned to the clinic, the diary cards were collected and any adverse events were noted.
(§2) Primary endpoint was the reduction of pain intensity over time on active treatment compared to placebo. The secondary endpoints were reduction of pain intensity at 30, 60, 90 and 120 minutes post dosing on VAS and VRS compared to pre-treatment pain score within each treatment. Comparison of pain intensity on VAS, blood pressure and pulse rate over time between treatments were performed With ANOVA. Paired-Samples T Test was used to compare pre-treatment pain score on VAS with pain score at 30, 60, 90, 120 minutes post dosing within each treatment. The sum of differences between the pre-treatment VRS score and the VRS score at 30, 60, 90, 120 minutes post dosing was calculated in order to obtained a summary measure of pain score for each treatment (Matthews et al. 1990). These sums of differences for each treatment were compared by Wilcoxon Signed Rank test. Five percent was accepted as level of significance.
The recordings were performed in a standardized manner by the same observer, a trained technician (HA), throughout the study. All parameters were recorded at baseline, 60 and 120 minutes after start of infusion. The trial was designed as a double blind, placebo controlled, crossover study. […] The patients were not allowed to take analgesics 12 hours prior to the examination. […]

The test system is the same in data set [2]. Kind of data set: Blood pressure, pulse rate, adverse events and rescue medication after L-NMMA infusion. The method, then:
as §1, §2

The test system is the same in data set [3]. As to the kind of experiment: Total Tenderness Score of pericranial myofascial tissues after L-NMMA. The settings on record: 6 mg/kg i.v., hydrochloride. From the text: Sixteen patients with a diagnosis of chronic tension-type headache according to the criteria of the International Headache Society (Headache Classification Committee 1988) were included (Table XVII). Five of the patients had coexisting infrequent migraine (<four days/year). The patients were recruited from the out-patient headache clinic at Glostrup University Hospital without respect to presence or absence of myofascial tenderness. All patients underwent a general physical and a neurological examination and completed a diagnostic headache diary during a 4-week run-in period (Russell et al. 1992). […]
The recordings were performed in a standardized manner by the same observer, a trained technician (HA), throughout the study. All parameters were recorded at baseline, 60 and 120 minutes after start of infusion. […] Headache intensity was measured on a 100 mm Visual Analog Scale (VAS) (0-no headache and 100-worst imaginable headache) before, during and after start of infusion.
Total tenderness. […] Tenderness was scored on a 4-point (0-3) scale at each location (local tenderness score) and values from left and right sides were summed to a Total Tenderness Score (TTS) (maximum possible score=48). […]

Where “and” joins values, the source holds several entries; their conditions need not be identical. Equal values may be shown once. Entries after “also recorded” stand apart in the source; their conditions may differ.

For the compound `CN=C(N)NCCC[C@H](N)C(=O)O.Cl` [L-NMMA, L-N^G methyl arginine hydrochloride], in data set [1] (6 mg/kg i.v., 16 patients, ANOVA, hydrochloride), the “Pain intensity (VAS) over time compared with placebo” value is listed as “reduced pain intensity (VAS) over time significantly more than placebo; also recorded: effective in the treatment of patients with chronic tension-type headache; also recorded: significantly reduced”. Further, the “Pain score compared with pre-treatment value within treatment” value in data set [1] (6 mg/kg i.v., post treatment time points, hydrochloride) was “significantly reduced after 30, 60, 90 and 120 minutes; also recorded: significantly reduced at each time point”. Moreover, the “Pain score on VAS, 30 minutes” value in data set [1] (30 minutes post dosing, 100-mm VAS, 6 mg/kg i.v., mean (SD)) turned out to be 38 ± 18. Besides, the “Pain score on VAS, 60 minutes” value in data set [1] (60 minutes post dosing, 100-mm VAS, 6 mg/kg i.v., mean (SD)) is listed as 35 ± 18. For the same compound, in data set [1] (90 minutes post dosing, 100-mm VAS, 6 mg/kg i.v., mean (SD)), the “Pain score on VAS, 90 minutes” value was found to be 34 ± 21. Besides, in data set [1] (120 minutes post dosing, 100-mm VAS, 6 mg/kg i.v., mean (SD)), the “Pain score on VAS, 120 minutes” value came out at 33 ± 21. In addition, the “Pain intensity on VRS compared with placebo” value in data set [1] (Verbal Rating Scale 0-10, 6 mg/kg i.v., p=0.02) was “significantly lower”. The “Duration of antinociceptive effect on headache intensity and of reduction of muscle hardness and tenderness” value in data set [1] (after start of infusion, 6 mg/kg i.v.) is reported as “at least 120 minutes”. Also, the “Pain score on VAS, baseline” value in data set [1] (before treatment, 100-mm VAS, 6 mg/kg i.v. over 15 minutes, mean (SD), 16 patients) came out at 49 ± 16. In addition, the “Subjective symptoms reported (number of patients)” value in data set [2] (6 mg/kg i.v.) was “tiredness (2), dryness of the mouth (3), drowsiness (1), exhaustion (1), nausea (1) and a feeling of tingling in arm (1)”. For the same compound, in data set [2] (6 mg/kg i.v., p=0.0001 and p=0.0001), the “MAP and pulse rate over time compared with placebo” value was “changed significantly over time”. Further, the “Time at which the difference in MAP and pulse rate to placebo disappeared” value in data set [2] (after start of infusion) is 60 min. In data set [2] (occurred 10 minutes post dosing, 6 mg/kg i.v., hydrochloride, 6 mg/kg), the “Maximum decrease in pulse rate” value was 16±2% and 16%. Moreover, the “Maximum increase in mean arterial blood pressure (MAP)” value in data set [2] (occurred 15 minutes post dosing, 6 mg/kg i.v., hydrochloride, 6 mg/kg) is 12±2% and 12%. Further, the “Patients who reported subjective symptoms in relation to the infusion” value in data set [2] (of 16 patients, 6 mg/kg i.v.) is recorded as “Seven”. The “Patients who used simple analgesics as rescue medication” value in data set [2] (of 16 patients, 7 on placebo) is recorded as “Three”. The “TTS compared with baseline” value in data set [3] (p=0.007 and p=0.008) was “significantly reduced at 60 and 120 minutes; also recorded: significantly), reduced at 60 and 120 minutes”. For the same compound, in data set [3] (p=0.11), the “Tenderness score (summary) compared with placebo” value is “tended to be reduced; also recorded: tended to be reduced more; also recorded: not significant”.

The record behind these values is US6649605B2, “Treatment of tension-type headaches with NMDA receptor antagonists” (Head Explorer A/S, priority 1996, dated 2003).
